Data as given in ChEMBL document CHEMBL5030514, “Discovery of Anti-TNBC Agents Targeting PTP1B: Total Synthesis, Structure-Activity Relationship, In Vitro and In Vivo Investigations of Jamunones” (J Med Chem, 2021).

Tests used:
MCF7 = assay: Antiproliferative activity against human MCF-7 cells measured by MTT assay; format: functional, cell-based
MDA-MB-231 = assay: Antiproliferative activity against human MDA-MB-231 cells measured by MTT assay; format: functional, cell-based

SMILES | IC50 (MCF7) [µM] | IC50 (MDA-MB-231) [µM]
CCCCCCCCCCCCCCCc1cc(=O)c2c(O)cc(O)c(C)c2o1 | 17.5 | 6.79
CC/C=C\C/C=C\C/C=C\CCCCCCCc1cc(=O)c2c(O)c(C)c(OCOC)cc2o1 | 17.5 | 6.79
CCCCCCCCCCCCCCCc1cc(=O)c2c(O)c(C)c(OCOC)c(C)c2o1 | > 67.3 | > 87
CCCCC/C=C\C/C=C\CCCCCCCC1(O)CC(=O)c2c(O)cc(OCOC)cc2O1 (stereo not given) | > 84.1 | 16.1
CCCCC1(O)CC(=O)c2c(O)cc(O)cc2O1 (stereo not given) | > 67.3 | > 87
CCCCCCCCCCCCCCCc1cc(=O)c2c(O)c(C)c(O)cc2o1 | 43.2 | 42.8
CC/C=C\C/C=C\C/C=C\CCCCCCCc1cc(=O)c2c(O)cc(O)cc2o1 | 17.5 | 6.79
CCCCCCCCCCCCCCCc1cc(=O)c2c(O)cc(OCOC)c(C)c2o1 | > 67.3 | > 87
CCCCC/C=C\C/C=C\CCCCCCCc1cc(=O)c2c(O)cc(O)cc2o1 | 17.5 | 6.79
CCCCCCCCCCCCCCCC1(O)CC(=O)c2c(O)cc(O)cc2O1 (stereo not given) | 17.5 | 6.79
CC/C=C\C/C=C\C/C=C\CCCCCCCc1cc(=O)c2c(O)c(C)c(O)c(C)c2o1 | 17.5 | 6.79
CCCC/C=C\CCCCCCCCCc1cc(=O)c2c(O)cc(O)c(C)c2o1 | 17.5 | 6.79
CCCCC/C=C\C/C=C\CCCCCCCc1cc(=O)c2c(O)c(C)c(O)c(C)c2o1 | > 84.1 | 16.1
CC/C=C\C/C=C\C/C=C\CCCCCCCc1cc(=O)c2c(O)cc(O)c(C)c2o1 | 17.5 | 6.79
CC/C=C\C/C=C\C/C=C\CCCCCCCc1cc(=O)c2c(O)c(C)c(O)cc2o1 | 17.5 | 6.79
CCCCC/C=C\C/C=C\CCCCCCCc1cc(=O)c2c(O)c(C)c(OCOC)c(C)c2o1 | > 84.1 | 16.1
CCCCC/C=C\C/C=C\CCCCCCCc1cc(=O)c2c(O)cc(OCOC)c(C)c2o1 | > 84.1 | 16.1
CC/C=C\C/C=C\C/C=C\CCCCCCCC1(O)CC(=O)c2c(O)cc(O)cc2O1 (stereo not given) | 17.5 | 6.79
CCCCCCCCCCCC1(O)CC(=O)c2c(O)cc(O)cc2O1 (stereo not given) | 43.2 | 42.8
CCCC/C=C\CCCCCCCCCc1cc(=O)c2c(O)c(C)c(OCOC)c(C)c2o1 | > 67.3 | > 87
CC/C=C\C/C=C\C/C=C\CCCCCCCc1cc(=O)c2c(O)c(C)c(OCOC)c(C)c2o1 | > 84.1 | 16.1
CCCC/C=C\CCCCCCCCCc1cc(=O)c2c(O)c(C)c(OCOC)cc2o1 | > 67.3 | > 87

Other lines, results leading:

IC50 (MCF7) [µM] | IC50 (MDA-MB-231) [µM] | SMILES
> 67.3 | > 87 | CCCCC/C=C\C/C=C\CCCCCCCc1cc(=O)c2c(O)c(C)c(OCOC)cc2o1
43.2 | 42.8 | CCCCC/C=C\C/C=C\CCCCCCCC1(O)CC(=O)c2c(O)c(C)c(O)c(C)c2O1 (stereo not given)
43.2 | 42.8 | CC/C=C\C/C=C\C/C=C\CCCCCCCC1(O)CC(=O)c2c(O)c(C)c(O)c(C)c2O1 (stereo not given)
> 67.3 | > 87 | CCCCCCCCCCCCCCCc1cc(=O)c2c(O)c(C)c(OCOC)cc2o1
> 67.3 | > 87 | CCCC/C=C\CCCCCCCCCc1cc(=O)c2c(O)cc(OCOC)c(C)c2o1
> 67.3 | > 87 | CCCCCCCCCCCCCCCc1cc(=O)c2c(O)c(C)c(O)c(C)c2o1
> 84.1 | 16.1 | CCCCC/C=C\C/C=C\CCCCCCCc1cc(=O)c2c(O)c(C)c(O)cc2o1
> 100 | 16.1 | CCCCCCCCCCCCCCCC1(O)CC(=O)c2c(O)c(C)c(O)c(C)c2O1 (stereo not given)
43.2 | 42.8 | CCCC/C=C\CCCCCCCCCc1cc(=O)c2c(O)c(C)c(O)cc2o1
33.9 | 18.7 | CCCC/C=C/CCCCCCCCCC1(O)CC(=O)c2c(O)cc(O)cc2O1 (stereo not given)
17.5 | 6.79 | CCCCC/C=C\C/C=C\CCCCCCCc1cc(=O)c2c(O)cc(O)c(C)c2o1
17.5 | 6.79 | CC/C=C\C/C=C\C/C=C\CCCCCCCc1cc(=O)c2c(O)cc(OCOC)cc2o1
> 67.3 | > 87 | CCCC/C=C\CCCCCCCCCc1cc(=O)c2c(O)cc(OCOC)cc2o1
> 67.3 | > 87 | CCCCCCCCCCCCCCCC1(O)CC(=O)c2c(O)cc(OCOC)cc2O1 (stereo not given)
> 67.3 | > 87 | CCCC/C=C\CCCCCCCCCc1cc(=O)c2c(O)c(C)c(O)c(C)c2o1
17.5 | 6.79 | CCCCCCCCCCCCCCCc1cc(=O)c2c(O)cc(O)cc2o1
> 67.3 | > 87 | CCCCC/C=C\C/C=C\CCCCCCCc1cc(=O)c2c(O)cc(OCOC)cc2o1
17.5 | 6.79 | CCCCC/C=C\C/C=C\CCCCCCCC1(O)CC(=O)c2c(O)cc(O)cc2O1 (stereo not given)
17.5 | 6.79 | CC/C=C\C/C=C\C/C=C\CCCCCCCC1(O)CC(=O)c2c(O)cc(OCOC)cc2O1 (stereo not given)
> 67.3 | > 87 | CCCCCCCCCCCCCCCCCCCC1(O)CC(=O)c2c(O)cc(O)cc2O1 (stereo not given)
17.5 | 6.79 | CCCC/C=C\CCCCCCCCCc1cc(=O)c2c(O)cc(O)cc2o1
17.5 | 6.79 | CC/C=C\C/C=C\C/C=C\CCCCCCCc1cc(=O)c2c(O)cc(OCOC)c(C)c2o1
43.2 | 42.8 | CCCC/C=C\CCCCCCCCCC1(O)CC(=O)c2c(O)cc(OCOC)cc2O1 (stereo not given)
